{"source": "patent US20160136118A1", "about": "“COMPOSITIONS AND METHODS FOR THE TREATMENT OF A COMMON COLD AND SYMPTOMS THEREOF” (3E THERAPEUTICS CORPORATION, priority 2007, published 2016)", "key": {"[1]": {"system": "human patients exposed to cat allergen", "assay": "Single-blind study, exposure to cat allergen after contrast media pretreatment (Example 11)", "assay_type": "in vivo", "details": "for Reactions on exposure to cat allergen: allergen diluted 1:10", "description": "A single-blind study was conducted using three human patients. The patients were exposed to cat allergen at three different dilutions, 1:1,000, 1:100, and 1:10. […] Exposure to the 1:100 dilution of allergen caused a mild reaction in all of the patients. Exposure to the 1:10 dilution of allergen caused moderate reactions in all of the patients, with one patient in particular requiring some treatment for the reaction.\nPatients were then pre-treated with VISIPAQUE®320 (iodixanol).\nPatients were pre-treated with Iotrolan 280.\nTable 1 summarizes the results and symptoms after exposure to a 1:10 dilution of cat allergen both with and without pretreatment with VISIPAQUE®320 or Iotrolan 280."}, "[2]": {"system": "human patients exposed to cat allergen", "assay": "Single-blind study, cat allergen at three dilutions with or without pretreatment, symptoms per patient (Example 12)", "assay_type": "in vivo", "set-up": "Drip / Congestion / Itch: scale not given here", "details": "for Itch / Sneezes / Congestion / Drip: pretreatment", "description": "A single-blind study was conducted using three human patients. Patients were pre-treated with VISIPAQUE®320 (Iodixanol) or not treated with contrast media. The patients were exposed to cat allergen at three different dilutions, 1:1000, 1:100, and 1:10. Patient symptoms of itch, drip, congestion, and sneeze were assessed.\nTables 2-4 show the results and symptoms after exposure to the indicated dilution of cat allergen both with and without pretreatment with VISIPAQUE®320.\nIn a similar study, patients were treated with Iotrolan 280 prior to exposure to 1:10, 1:100, or 1:1000 dilutions of cat allergen."}, "[3]": {"system": "histamine, dust allergen and grass allergen injected into patient's arm", "assay": "Skin reaction to injected histamine, dust allergen and grass allergen after topical pretreatment of the arm (Example 13)", "assay_type": "in vivo, human", "description": "FIG. 1 is a photograph showing the response of the patient to 6 injections. Three substances were each injected twice at two different locations, for a total of 6 injections. Each substance was injected at one location that had been pretreated with CHOLOGRAFIN® meglumine and at a second location that had not been pretreated. CHOLOGRAFIN® meglumine, which comprises 80% Iodipamide in emollient, was applied topically to part of a patient's arm. Forty five minutes after application of the CHOLOGRAFIN® meglumine, each of the three substances was injected into the two different locations on the arm, one pretreated and one that was not pretreated. The three substances were histamine, dust allergen, and grass allergen. Referring to FIG. 1, the two histamine injections went into the upper level of the arm, the two dust allergen injections went into the middle level of the arm, and the two grass allergen injections went into the lower level of the arm. FIG. 1 is a photograph showing the resulting reactions taken 2.5 hours after the injections. […] The reactions of upper, middle and lower levels of the arm on the untreated sides were rated with scores of 3+, 4+, and 4+, respectively. The reactions of the upper, middle and lower levels of the arm on the pretreated sides were rated with scores of 1+, 2+, and 2+, respectively."}, "[4]": {"details": "1:10 dilution of cat allergen, pretreatment, three human patients"}, "[5]": {"details": "Patient 1, 1:10 concentration cat allergen"}, "[6]": {"details": "Patient 1, 1:100 concentration cat allergen"}, "[7]": {"details": "Patient 1, 1:1000 concentration cat allergen"}, "[8]": {"details": "Patient 2, 1:10 concentration cat allergen"}, "[9]": {"details": "Patient 2, 1:100 concentration cat allergen"}, "[10]": {"details": "Patient 2, 1:1000 concentration cat allergen"}, "[11]": {"details": "Patient 3, 1:10 concentration cat allergen"}, "[12]": {"details": "Patient 3, 1:100 concentration cat allergen"}, "[13]": {"details": "Patient 3, 1:1000 concentration cat allergen"}}, "data": [{"compound": "CN(C(=O)CC(=O)N(C)c1c(I)c(C(=O)NC(CO)C(O)CO)c(I)c(C(=O)NC(CO)C(O)CO)c1I)c1c(I)c(C(=O)NC(CO)C(O)CO)c(I)c(C(=O)NC(CO)C(O)CO)c1I", "note": "(centres unmarked) [Iotrolan 280, Iotrolan]", "values": [{"measurement": "Reaction to the cat allergen compared to the reaction without pretreatment", "setting": "[1]; 1:10 dilution of cat allergen", "value": "decreased reaction"}, {"measurement": "Itch", "setting": "[1]; [4]", "value": 0}, {"measurement": "Sneezes", "setting": "[1]; [4]", "value": 2, "unit": "×"}, {"measurement": "Reactions on exposure to cat allergen", "setting": "[1]; after pretreatment", "value": "mild reactions"}]}, {"compound": "CC(=O)N(CC(O)CN(C(C)=O)c1c(I)c(C(=O)NCC(O)CO)c(I)c(C(=O)NCC(O)CO)c1I)c1c(I)c(C(=O)NCC(O)CO)c(I)c(C(=O)NCC(O)CO)c1I", "note": "(centres unmarked) [Visipaque 320, iodixanol]", "values": [{"measurement": "Symptoms in response to the cat allergen compared to the reaction without pretreatment", "setting": "[2]; 1:1000, 1:100, 1:10 dilutions, three human patients", "value": "decreased symptoms"}, {"measurement": "Itch", "setting": "[2]; [5]", "value": 0}, {"measurement": "Sneezes", "setting": "[2]; [5]", "value": 2, "unit": "×"}, {"measurement": "Congestion", "setting": "[2]; [6]", "value": 0}, {"measurement": "Drip", "setting": "[2]; [6]", "value": 0}, {"measurement": "Itch", "setting": "[2]; [6]", "value": 0}, {"measurement": "Sneezes", "setting": "[2]; [6]", "value": 0, "unit": "×"}, {"measurement": "Congestion", "setting": "[2]; [7]", "value": 0}, {"measurement": "Drip", "setting": "[2]; [7]", "value": 0}, {"measurement": "Itch", "setting": "[2]; [7]", "value": 0}, {"measurement": "Sneezes", "setting": "[2]; [7]", "value": 0, "unit": "×"}, {"measurement": "Congestion", "setting": "[2]; [8]", "value": 0}, {"measurement": "Drip", "setting": "[2]; [8]", "value": 0}, {"measurement": "Itch", "setting": "[2]; [8]", "value": 0}, {"measurement": "Sneezes", "setting": "[2]; [8]", "value": 0, "unit": "×"}, {"measurement": "Congestion", "setting": "[2]; [9]", "value": 0}, {"measurement": "Drip", "setting": "[2]; [9]", "value": 0}, {"measurement": "Itch", "setting": "[2]; [9]", "value": 0}, {"measurement": "Sneezes", "setting": "[2]; [9]", "value": 0, "unit": "×"}, {"measurement": "Congestion", "setting": "[2]; [10]", "value": 0}, {"measurement": "Drip", "setting": "[2]; [10]", "value": 0}, {"measurement": "Itch", "setting": "[2]; [10]", "value": 0}, {"measurement": "Sneezes", "setting": "[2]; [10]", "value": 0, "unit": "×"}, {"measurement": "Drip", "setting": "[2]; [11]", "value": 0}, {"measurement": "Sneezes", "setting": "[2]; [11]", "value": 2, "unit": "×"}, {"measurement": "Congestion", "setting": "[2]; [12]", "value": 0}, {"measurement": "Drip", "setting": "[2]; [12]", "value": 0}, {"measurement": "Itch", "setting": "[2]; [12]", "value": 0}, {"measurement": "Sneezes", "setting": "[2]; [12]", "value": 0, "unit": "×"}, {"measurement": "Congestion", "setting": "[2]; [13]", "value": 0}, {"measurement": "Itch", "setting": "[2]; [13]", "value": 0}, {"measurement": "Sneezes", "setting": "[2]; [13]", "value": 0, "unit": "×"}, {"measurement": "Reaction to the cat allergen compared to the reaction without pretreatment", "setting": "[1]; 1:10 dilution of cat allergen", "value": "decreased reaction"}, {"measurement": "Sneezes", "setting": "[1]; [4]", "value": 2, "unit": "×"}, {"measurement": "Reactions on exposure to cat allergen", "setting": "[1]; after pretreatment", "value": "mild reactions"}, {"measurement": "Symptoms on exposure to cat allergen", "setting": "[1]; cat allergen diluted 1:100, after pretreatment", "value": "not associated with any symptoms"}]}, {"compound": "O=C(CCCCC(=O)Nc1c(I)cc(I)c(C(=O)O)c1I)Nc1c(I)cc(I)c(C(=O)O)c1I", "note": "[iodipamide, Iodipamide]", "values": [{"measurement": "Reaction to histamine, dust allergen and grass allergen, pretreated versus untreated side", "setting": "[3]", "value": "decreased reaction"}]}]}
